Experiment [1] has as its target T1, BTK (Homo sapiens, UniProt Q06187). Nature of the experiment: Assay to determine BTK inactivation rate (active site probe ELISA, human whole blood). It counts as cell-based. On the set-up: tissue StemExpress; host or cells: human whole blood. Particulars: 37° C., 5-60 minutes, read-out: BTK hWB (Kinact/Ki). On the procedure: This example employed a BTK active site probe-based assay using a biotinylated covalent inhibitor in human and mouse blood or mouse brain lysate.
Human whole blood was obtained from StemExpress (Stockton, CA) and kept at ambient temperature until the time of the experiment, which was approximately 24 hours after it had been collected. • 1. A 1× lysis buffer was prepared by using 10× lysis buffer (Cell Signaling Technology, #9083S, Danvers, MA), molecular biology grade water, 100× Halt Protease and Phosphatase Inhibitor Cocktail, (ThermoFisher, #78440, Waltham, MA), and BTK active site probe (final: 0.4 μM). This was prepared fresh each experimental day. • 2. Lysis buffer was added in the volume of 30 μL to all wells in a V-bottom plate (Greiner Bio-One, #651261, Monroe, NC) in preparation for timepoint collections. • 3. Compounds were reconstituted to stocks of 10 mM in 100% DMSO and were diluted in 2-fold serial dilutions to generate an 8-point curve in DMSO, with the last point being DMSO only. • 4. A working 10× dilution series was created using 1 μL of the prepared DMSO titration into […] 1×PBS in order to keep the DMSO constant (0.03% DMSO final). • 5. The whole blood was added in the volume of 225 μL per well in a new 96 w v-bottom plate. • 6. For compound treatment, 25 μL of the 10× dilution series in PBS was added to the 225 μL whole blood, followed by briefly pipetting up and down, twice. • 7. The plates were then covered with plastic lids and incubated at 37° C. for 5, 10, 15, 30, 60 minutes. • 8. At each timepoint, 30 μL of compound- or DMSO (vehicle)-treated blood is pulled from each column and added to preloaded collection plates that contained 30 μL of lysis buffer supplemented with BTK active site probe. Samples were then mixed briefly by pipetting up and down, twice. • 9. The plates with collected and lysed samples were shaken and covered with sealing film on a rotator for 60 minutes at room temperature. These samples were used fresh for detection via ELISA, and remaining sample was frozen at −80° C. if a repeat was necessary. Determining Amount of Unoccupied BTK Using ELISA • 1. All streptavidin pre-coated plates (R&D Systems, #CP004, Minneapolis, MN) were brought to room temperature while samples are lysing. • 2. Assay Buffer 1, 1×PBS+0.05% Tween 20+1% BSA was prepared, filtered, and stored at 4° C. when not in use. • 3. Using this Assay Buffer 1, assay buffer+1× protease/phosphatase inhibitor cocktail (PICS) was prepared in the amount needed for all samples. • 4. Assay Buffer+PICS in the volume of 90 μL/well was added to the ELISA plate for blood samples. • 5. Assay Buffer+PICs in the volume of 50 μL/well was added to the ELISA plate for brain samples. • 6. Lysed blood sample (10 μL) was added to the ELISA plate. • 7. Lysed brain sample (50 μL) was added to the ELISA plate. • 8. Samples were loaded into the ELISA plate for a total of 100 μL/well, in duplicate, and remained in the plate, sealed, overnight at 4° C. • 9. The following day, the plate was washed three times with 1× Wash Buffer (1×PBS+0.05% Tween 20) at 250 μL/well using a plate washer. • 10. The plate was inverted to expel all fluid each time and blotted on clean paper towels to remove remaining liquid. • 11. Assay Buffer 2 was prepared (1×PBS+0.05% Tween 20+0.5% BSA) and kept at 4° C. when not in use. • 12. The primary antibody α-BTK (clone D3H5, Cell Signaling Technology #8547S Danvers, MA) was diluted 1:500 in Assay Buffer 2. • 13. Diluted a-BTK antibody was added at 100 μL/well. • 14. The plate was covered with adhesive film and incubated for 90 minutes at room temperature. • 15. The plate was washed three times with 1× Wash Buffer at 250 μL/well using a plate washer. • 16. The plate was inverted to expel all fluid each time and blotted on clean paper towels to remove remaining liquid. • 17. The detection antibody (Jackson Immuno Research, #711-005-152) was diluted 1:2,500 with Assay Buffer 2. • 18. The diluted antibody was added at 100 μL/well. • 19. […]
On the technique in general: An ELISA detects its analyte on a solid surface through an enzyme-linked reagent.

For experiment [2], the target named is T1, BTK. Nature of the experiment: BTK IC50 (EZ reader kinase assay). The class given is biochemical. On the set-up: purchased Carna. As to conditions: ATP 1 mM, BTK 2 nM, 90 minutes at room temperature. On the procedure:
Solutions of compounds (test or control) in DMSO were prepared at the desired concentrations, and serially diluted to 11 concentrations by 3-fold dilution in 384pp-plate using TECAN EVO200. 20 nL of stock were transferred to 384 plate using Echo550. DMSO was used as vehicle control.
Two separate solutions were prepared—an ATP solution containing MgCl2 (10 mM), Brij-35 (0.01%), DTT (2 mM), BSA (0.05%), EGTA (1 mM), HEPE (pH7.5) (50 mM), FLPeptide (6 uM) and ATP (4 mM); and a BTK solution containing MgCl2 (10 mM), Brij-35 (0.01%), DTT (2 mM), BSA (0.05%), EGTA (1 mM), HEPE (pH7.5) (50 mM) and BTK (2.67 nM). (BTK was obtained from Carna; FLPeptide2 was obtained from PerkinElmer and Ibrutinib was obtained from Selleck.) 5 uL of ATP solution were added to each well, followed by addition of 15 uL of BTK solution to initiate the reaction. (Note the final volume of each well was 20 uL containing MgCl2 (10 mM), Brij-35 (0.01%), DTT (2 mM), BSA (0.05%), EGTA (1 mM), HEPE (pH7.5) (50 mM), FLPeptide (1.5 uM), ATP (1 mM) and BTK (2 nM). The plates were incubated at room temperature for 90 minutes and then stopping buffer added (75 uL, containing 0.5 M EDTA) to terminate the reaction. Samples from each well were analyzed using EZ reader.
The % remaining activity was calculated using read conversion ratio (CR) according to the equation: […]
XLFit (equation 201) was used to calculate IC50's by floating both bottom and top.
BTK IC50 values are provided in Table 5, for the compounds described in Examples 1-13, wherein: • “A” denotes an IC50<1 nM; • “B” denotes an IC50 1-10 nM; and • “C” denotes an IC50>10 nM.

Each structure is given as a SMILES string.

The results in this text go back to patent US12600698B2, “Kinase inhibitors” (Vidya Therapeutics, Inc., priority 2021, dated 2026).

T1 sequence (Q06187 whole entry): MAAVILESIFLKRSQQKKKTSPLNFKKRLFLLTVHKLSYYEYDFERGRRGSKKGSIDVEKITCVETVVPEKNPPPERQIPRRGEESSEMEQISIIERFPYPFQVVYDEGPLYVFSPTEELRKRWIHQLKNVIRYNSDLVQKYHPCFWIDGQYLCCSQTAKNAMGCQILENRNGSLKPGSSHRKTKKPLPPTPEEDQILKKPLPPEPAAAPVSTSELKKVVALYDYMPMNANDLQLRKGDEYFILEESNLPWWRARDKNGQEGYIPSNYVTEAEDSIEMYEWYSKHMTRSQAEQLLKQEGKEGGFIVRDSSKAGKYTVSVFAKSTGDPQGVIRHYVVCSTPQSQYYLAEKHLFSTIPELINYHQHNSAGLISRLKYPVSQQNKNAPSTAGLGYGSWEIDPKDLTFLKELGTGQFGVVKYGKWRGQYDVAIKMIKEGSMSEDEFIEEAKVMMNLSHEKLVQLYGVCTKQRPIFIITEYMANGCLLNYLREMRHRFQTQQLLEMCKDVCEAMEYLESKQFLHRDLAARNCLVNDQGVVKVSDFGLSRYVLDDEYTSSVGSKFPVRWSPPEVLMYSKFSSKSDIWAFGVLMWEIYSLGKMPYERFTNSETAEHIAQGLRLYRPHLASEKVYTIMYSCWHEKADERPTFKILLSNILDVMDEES

In the case of `CC#CC(=O)N[C@@H]1CCC[C@H](c2c(F)cc(C(N)=O)c3[nH]c(C)c(Cl)c23)C1` (relative stereo) [Compound 6-(cis), 4-((cis)-3-(but-2-ynamido)cyclohexyl)-3-chloro-5-fluoro-2-methyl-1H-indole-7-carboxamide], the kinact/KI on BTK [1] is under 8330 M⁻¹ s⁻¹. The IC50 at BTK [2] is 1 to 10 nM.
On to `CC#CC(=O)N[C@@H]1CCC=C(c2c(F)cc(C(N)=O)c3[nH]c(C)c(Cl)c23)C1` [1A(R), (R)-4-(5-(but-2-ynamido)cyclohex-1-en-1-yl)-3-chloro-5-fluoro-2-methyl-1H-indole-7-carboxamide], for which the kinact/KI at BTK [1] is under 8330 M⁻¹ s⁻¹. This compound registered an IC50 against BTK [2] of 1 to 10 nM.
On to `CC#CC(=O)N[C@H]1CCC=C(c2c(F)cc(C(N)=O)c3[nH]c(C)c(Cl)c23)C1` [1A(S), (S)-4-(5-(but-2-ynamido)cyclohex-1-en-1-yl)-3-chloro-5-fluoro-2-methyl-1H-indole-7-carboxamide], for which, on BTK [1], the kinact/KI was under 8330 M⁻¹ s⁻¹. On BTK [2], this compound had a 50% inhibitory concentration (IC50) of under 1 nM.
For `CC#CC(=O)N[C@@H]1CCC=C(c2c(F)c(F)c(C(N)=O)c3[nH]c(C)c(Cl)c23)C1` [2A(R), (R)-4-(5-(but-2-ynamido)cyclohex-1-en-1-yl)-3-chloro-5,6-difluoro-2-methyl-1H-indole-7-carboxamide], in that order: under 8330 M⁻¹ s⁻¹ and 1 to 10 nM.
Regarding `CC#CC(=O)N[C@H]1CCC=C(c2c(F)c(F)c(C(N)=O)c3[nH]c(C)c(Cl)c23)C1` [2A(S), (S)-4-(5-(but-2-ynamido)cyclohex-1-en-1-yl)-3-chloro-5,6-difluoro-2-methyl-1H-indole-7-carboxamide], the kinact/KI at BTK [1] was over 16700 M⁻¹ s⁻¹. The IC50 at BTK [2] was under 1 nM.
For `CC#CC(=O)N[C@H]1CCC=C(c2c(F)cc(C(N)=O)c3[nH]c(C)c(C)c23)C1` [3A(S), (S)-4-(5-(but-2-ynamido)cyclohex-1-en-1-yl)-5-fluoro-2,3-dimethyl-1H-indole-7-carboxamide] the same measures were over 16700 M⁻¹ s⁻¹ and under 1 nM.
Regarding `CC#CC(=O)N[C@@H]1C=C(c2c(F)cc(C(N)=O)c3[nH]c(C)c(C)c23)CCC1` [3B(S), (S)-4-(3-(but-2-ynamido)cyclohex-1-en-1-yl)-5-fluoro-2,3-dimethyl-1H-indole-7-carboxamide], at BTK [1], the kinact/KI is over 16700 M⁻¹ s⁻¹. This compound also yielded an IC50 against BTK [2] of 1 to 10 nM.
As for `CC#CC(=O)N[C@@H]1C=C(c2c(F)cc(C(N)=O)c3[nH]c(C)c(Cl)c23)CCC1` [5B(S), (S)-4-(3-(but-2-ynamido)cyclohex-1-en-1-yl)-3-chloro-5-fluoro-2-methyl-1H-indole-7-carboxamide], the kinact/KI on BTK [1] is under 8330 M⁻¹ s⁻¹. Besides, at BTK [2], the concentration for half-maximal inhibition (IC50) fell in the range of 1 to 10 nM.
Consider `CC#CC(=O)N[C@H]1CCC[C@@H](c2c(F)cc(C(N)=O)c3[nH]c(C)c(Cl)c23)C1` [6-(1R,3S), 4-((1R,3S)-3-(but-2-ynamido)cyclohexyl)-3-chloro-5-fluoro-2-methyl-1H-indole-7-carboxamide], for which the kinact/KI on BTK [1] was under 8330 M⁻¹ s⁻¹. The same compound had a half-inhibitory concentration (IC50) on BTK [2] of 1 to 10 nM.
In the case of `CC#CC(=O)N[C@H]1CCC[C@H](c2c(F)cc(C(N)=O)c3[nH]c(C)c(Cl)c23)C1` [6-(1S,3S), 4-((1S,3S)-3-(but-2-ynamido)cyclohexyl)-3-chloro-5-fluoro-2-methyl-1H-indole-7-carboxamide], the kinact/KI at BTK [1] was in the range of 8330 to 16700 M⁻¹ s⁻¹. The compound further registered an IC50 at BTK [2] of 1 to 10 nM.
Regarding `CC#CC(=O)N[C@H]1CCC[C@H](c2c(F)cc(C(N)=O)c3[nH]c(C)c(C)c23)C1` [10-(1S,3S), 4-((1S,3S)-3-(but-2-ynamido)cyclohexyl)-5-fluoro-2,3-dimethyl-1H-indole-7-carboxamide], on BTK [1], the kinact/KI is under 8330 M⁻¹ s⁻¹. At BTK [2], this compound returned an IC50 of 1 to 10 nM.
For `CC#CC(=O)N[C@@H]1CCC[C@@H](c2c(F)c(F)c(C(N)=O)c3[nH]c(C)c(Cl)c23)C1` [11-(1R,3R), 4-[(1R,3R)-3-(but-2-ynoylamino)cyclohexyl]-3-chloro-5,6-difluoro-2-methyl-1H-indole-7-carboxamide], in that order: under 8330 M⁻¹ s⁻¹ and 1 to 10 nM.
On to `CC#CC(=O)N[C@H]1CC[C@@H](c2c(F)cc(C(N)=O)c3[nH]c(C)c(C)c23)C1` [12-(1R,3S), 4-((1R,3S)-3-(but-2-ynamido)cyclopentyl)-5-fluoro-2,3-dimethyl-1H-indole-7-carboxamide], for which, on BTK [1], the kinact/KI is under 8330 M⁻¹ s⁻¹. At BTK [2], this compound showed a concentration for half-maximal inhibition (IC50) of 1 to 10 nM.
`CC#CC(=O)N[C@@H]1CCC[C@@H](c2c(F)c(F)c(C(N)=O)c3[nH]c(C)c(C#N)c23)C1` [Compound 7-(1R,3R), 4-((1R,3R)-3-(but-2-ynamido)cyclohexyl)-3-cyano-5,6-difluoro-2-methyl-1H-indole-7-carboxamide]: at BTK [1], the kinact/KI lay in the range of 8330 to 16700 M⁻¹ s⁻¹. Also, the IC50 against BTK [2] was 1 to 10 nM.
In the case of `CC#CC(=O)N[C@H]1CCC[C@@H](c2c(F)c(F)c(C(N)=O)c3[nH]c(C)c(C#N)c23)C1` [Compound 7-(1R,3S), 4-((1R,3S)-3-(but-2-ynamido)cyclohexyl)-3-cyano-5,6-difluoro-2-methyl-1H-indole-7-carboxamide], the kinact/KI at BTK [1] was under 8330 M⁻¹ s⁻¹. The compound further showed an IC50 against BTK [2] of 1 to 10 nM.
For `CC#CC(=O)N[C@H]1CCC[C@@H](c2c(F)c(F)c(C(N)=O)c3[nH]c(C)c(Cl)c23)C1` [Compound 11-(1R,3S), 4-((1R,3S)-3-(but-2-ynamido)cyclohexyl)-3-chloro-5,6-difluoro-2-methyl-1H-indole-7-carboxamide] the same measures were under 8330 M⁻¹ s⁻¹ and 1 to 10 nM.
As to `CC#CC(=O)N[C@@H]1CC[C@@H](c2c(F)cc(C(N)=O)c3[nH]c(C)c(C)c23)C1` [Compound 13-(1R,3R), 4-((1R,3R)-3-(but-2-ynamido)cyclopentyl)-5-fluoro-2,3-dimethyl-1H-indole-7-carboxamide], the kinact/KI on BTK [1] was under 8330 M⁻¹ s⁻¹. This compound also had an IC50 against BTK [2] of 1 to 10 nM.

As a reminder, the IC50 is the concentration that gives 50% inhibition. A lower IC50 goes with higher potency.
